# Results as given in BindingDB's records for doi:10.1016/j.bmc.2023.117534 (Zunyi Medical University, 2023).
# What was measured:
# [1] = Inhibition of wild type EGFR in mouse BaF3 cells assessed as cell growth inhibition measured after 72 hrs by CellTiter-Glo assay
# [2] = Inhibition of EGFR L858R/T790M/C797S triple mutant in human NCI-H1975 cells assessed as cell growth inhibition measured after 72 hrs by CellTiter-Glo assay
IC50 [1],IC50 [2],SMILES
> 10 µM,–,O=C(Nc1nccs1)C(c1ccccc1)N1Cc2ccccc2C1=O (stereo not drawn)
1.45 µM,12.4 µM,COc1cc2ncnc(NCc3ccc(NC(=O)C(c4ccccc4)N4Cc5ccccc5C4=O)cc3)c2cc1OCCCN1CCOCC1 (stereo not drawn)
